From patent US10947213B1 (Merck Patent GmbH, priority 2015, dated 2021) come the findings set out here.

The assay addresses T1, TLR7/NFKb HEK cells (Homo sapiens, UniProt Q9NYK1).
T1 construct: expressed in transfected cells; host or cells: HEK cells (TLR7/NFKb reporter line)
T1 sequence (Q9NYK1 27-1049): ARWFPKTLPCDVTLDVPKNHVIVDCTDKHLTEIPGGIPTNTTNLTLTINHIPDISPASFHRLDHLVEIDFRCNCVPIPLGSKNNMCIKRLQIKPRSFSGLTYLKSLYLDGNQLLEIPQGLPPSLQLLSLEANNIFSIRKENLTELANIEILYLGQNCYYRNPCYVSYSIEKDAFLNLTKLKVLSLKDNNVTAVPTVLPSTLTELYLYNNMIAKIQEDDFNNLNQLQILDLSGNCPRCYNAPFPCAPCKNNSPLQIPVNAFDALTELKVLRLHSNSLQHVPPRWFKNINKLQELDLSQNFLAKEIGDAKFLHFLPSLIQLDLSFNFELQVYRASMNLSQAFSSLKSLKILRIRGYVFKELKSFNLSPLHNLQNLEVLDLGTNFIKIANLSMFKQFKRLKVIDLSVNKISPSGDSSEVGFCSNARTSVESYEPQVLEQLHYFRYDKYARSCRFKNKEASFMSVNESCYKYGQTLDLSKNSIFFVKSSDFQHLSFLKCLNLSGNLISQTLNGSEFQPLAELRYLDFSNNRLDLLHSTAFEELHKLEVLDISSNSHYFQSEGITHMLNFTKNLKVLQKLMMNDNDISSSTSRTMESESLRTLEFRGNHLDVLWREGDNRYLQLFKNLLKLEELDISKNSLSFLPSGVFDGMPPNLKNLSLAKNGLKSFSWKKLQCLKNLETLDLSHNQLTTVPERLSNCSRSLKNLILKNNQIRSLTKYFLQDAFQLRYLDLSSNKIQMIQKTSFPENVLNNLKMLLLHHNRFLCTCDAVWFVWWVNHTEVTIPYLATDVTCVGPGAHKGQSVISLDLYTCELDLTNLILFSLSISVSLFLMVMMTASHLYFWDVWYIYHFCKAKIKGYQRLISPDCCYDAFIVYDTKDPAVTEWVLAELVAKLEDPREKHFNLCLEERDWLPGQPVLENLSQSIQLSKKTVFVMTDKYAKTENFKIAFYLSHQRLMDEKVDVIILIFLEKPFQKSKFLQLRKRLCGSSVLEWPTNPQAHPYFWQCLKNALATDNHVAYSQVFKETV
As to the kind of experiment: HEK Cell Assay (TLR7/NFKb reporter, Steady-Glo luciferase readout). Format: cell-based. Particulars: 30 min compound preincubation, then R*48 agonist for 5 hours, read-out: Potency. In short, it runs like this:
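Steady-Glo luminescence after 5 h stimulation with R*48 agonist, following 30 min compound preincubation. Assay run in HEK cells carrying a TLR7/NFKb luciferase reporter, plated at 5000 cells/well and grown 24 h at 37° C (10% CO2) before treatment.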
On to `N[C@H]1C[C@@H](C2CC2)CN(c2ccc(C(F)F)c3ncccc23)C1` (relative stereo) [Compound 332, cis-5-cyclopropyl-1-[8-(difluoromethyl)quinolin-5-yl]piperidin-3-amine], for which the IC50 is below 1000 nM.
Consider `CCC(C)CC(=O)N[C@@H]1C[C@H](C)CN(c2ccnc3nccnc23)C1` (single isomer, unassigned) [Compound 153], for which the IC50 lay in the range of 1000 to 10000 nM.
Regarding `C[C@H]1C[C@@H](NC(=O)CC(C)(C)CN)CN(c2ccc(C(F)F)c3nccnc23)C1` [Compound 327, 4-amino-N-[(3R,5S)-1-[8-(difluoromethyl)quinoxalin-5-yl]-5-methylpiperidin-3-yl]-3,3-dimethylbutanamide], the IC50 was below 1000 nM.
With `C[C@H]1C[C@@H](NC(=O)CN(C)C)CN(c2ccc(F)c3ncccc23)C1` [Compound 469, 2-Dimethylamino-N-[(3R,5S)-1-(8-fluoro-quinolin-5-yl)-5-methyl-piperidin-3-yl]-acetamide], the IC50 was 1000 to 10000 nM.
Turning to `C[C@H]1C[C@@H](NC(=O)C(N)C(F)(F)F)CN(c2ccc(C(N)=O)c3ncccc23)C1` (single isomer, unassigned) [Compound 185], the IC50 was above 10000 nM.
For `C[C@H]1C[C@@H](NC(=O)CN2CCCN(C)CC2)CN(c2ccc(C#N)c3nccnc23)C1` [Compound 276, N-[(3R,5S)-1-(8-cyanoquinoxalin-5-yl)-5-methylpiperidin-3-yl]-2-(4-methyl-1,4-diazepan-1-yl)acetamide] the value was below 1000 nM; for `CCN(C)[C@H](C)C(=O)N[C@@H]1C[C@H](C)CN(c2ccc(C#N)c3nccnc23)C1` [Compound 98, (2R)—N-[(3R,5S)-1-(8-cyanoquinoxalin-5-yl)-5-methylpiperidin-3-yl]-2-[ethyl(methyl)amino]propanamide], below 1000 nM; for `N[C@H]1C[C@@H](C2CC2)CN(c2ccc(C(F)(F)F)c3ncccc23)C1` (relative stereo) [Compound 331, cis-5-cyclopropyl-1-[8-(trifluoromethyl)quinolin-5-yl]piperidin-3-amine], below 1000 nM.
On to `CCN(C)[C@@H](C)C(=O)N[C@@H]1C[C@H](C)CN(c2ccnc3nccnc23)C1` [Compound 101, (2S)-2-[ethyl(methyl)amino]-N-[(3R,5S)-5-methyl-1-[pyrido[2,3-b]pyrazin-8-yl]piperidin-3-yl]propanamide], for which the IC50 was in the range of 1000 to 10000 nM.
For `O=C(CN1CCOCC1)N[C@H]1C[C@@H](C2CC2)CN(c2ccc(C(F)(F)F)c3nccnc23)C1` (relative stereo) [Compound 335, cis-N-[5-cyclopropyl-1-[8-(trifluoromethyl)quinoxalin-5-yl]piperidin-3-yl]-2-(morpholin-4-yl)acetamide], the IC50 is above 10000 nM.
On to `CCN(CC)CCNCC1CCN(c2ccnc3ccc(C(F)(F)F)cc23)CC1` [Compound 377, N,N-Diethyl-N′-[1-(6-trifluoromethyl-quinolin-4-yl)-piperidin-4-ylmethyl]-ethane-1,2-diamine], for which the IC50 lay within 1000 to 10000 nM.
For the compound `N#Cc1ccc(N2CCC(C(=O)NCCN3CCCCC3)CC2)c2nccnc12` [Compound 440, 1-(8-Cyano-quinoxalin-5-yl)-piperidine-4-carboxylic Acid (2-piperidin-1-yl-ethyl)-amide], the IC50 was below 1000 nM.
In the case of `CC(C)[C@H](O)C(=O)NC1CC(C2CC2)CN(c2ccc(C#N)c3nccnc23)C1` (single isomer, unassigned) [Compound 174], the IC50 is above 10000 nM.
For `CC(C)(C)CC(=O)N[C@H]1CN(c2ccc(C#N)c3nccnc23)CC(C)(C)C1` [Compound 215, N-[(3R)-1-(8-cyanoquinoxalin-5-yl)-5,5-dimethylpiperidin-3-yl]-3,3-dimethylbutanamide], the IC50 is below 1000 nM.
With `C[C@H]1C[C@@H](NC(=O)CN2CC(N)C2)CN(c2ccc(C(F)(F)F)c3nccnc23)C1` [Compound 361, 2-(3-aminoazetidin-1-yl)-N-((3R,5S)-5-methyl-1-(8-(trifluoromethyl)quinoxalin-5-yl)piperidin-3-yl)acetamide], the IC50 is below 1000 nM.
Regarding `C[C@H]1C[C@@H](NC(=O)CC2CN(C)C2)CN(c2ccc(C(F)(F)F)c3nccnc23)C1` [Compound 363, N-[(3R,5S)-5-methyl-1-[8-(trifluoromethyl)quinoxalin-5-yl]piperidin-3-yl]-2-(1-methylazetidin-3-yl)acetamide], the IC50 was below 1000 nM.
As for `C[C@H]1C[C@@H](NC(=O)CC(O)C(C)(C)C)CN(c2ccc(C#N)c3nccnc23)C1` (single isomer, unassigned) [Compound 146], the IC50 was below 1000 nM.
For the compound `Cc1cc(F)c(N2C[C@@H](C)C[C@@H](N)C2)c2cccnc12` [Compound 489, (3R,5S)-1-(6-Fluoro-8-methyl-quinolin-5-yl)-5-methyl-piperidin-3-ylamine], the IC50 was below 1000 nM.
Turning to `C[C@H]1C[C@@H](NC(=O)[C@@H](N)CO)CN(c2ccc(C(F)(F)F)c3ncccc23)C1` [Compound 476], the IC50 was below 1000 nM.
For the compound `C[C@H]1C[C@@H](O)CN(c2ccc(C#N)c3nccnc23)C1` [Compound 81, 8-[(3R,5S)-3-hydroxy-5-methylpiperidin-1-yl]quinoxaline-5-carbonitrile], the IC50 was below 1000 nM.
Regarding `C[C@H]1C[C@@H](NC(=O)CN(C)C)CN(c2ccc(C(F)F)c3ncccc23)C1` [Compound 209, N-[(3R,5S)-1-[8-(difluoromethyl)quinolin-5-yl]-5-methylpiperidin-3-yl]-2-(dimethylamino)acetamide], the IC50 is below 1000 nM.
Consider `C[C@H]1C[C@@H](NC(=O)CN(C)C)CN(c2ccc(C(F)(F)F)c3ncccc23)C1` [Compound 199, 2-(dimethylamino)-N-[(3R,5S)-5-methyl-1-[8-(trifluoromethyl)quinolin-5-yl]piperidin-3-yl]acetamide], for which the IC50 is below 1000 nM.
For `C[C@H]1C[C@@H](NC(=O)CN2CCOCC2)CN(c2ccc(C#N)c3nccnc23)C1` [Compound 108, N-[(3R,5S)-1-(8-cyanoquinoxalin-5-yl)-5-methylpiperidin-3-yl]-2-(morpholin-4-yl)acetamide] the value was below 1000 nM; for `C[C@@H]1C[C@@H](C(=O)NCC2CCN(C)CC2)CN(c2ccc(C(F)(F)F)c3ncccc23)C1` (relative stereo) [Compound 548, trans-5-Methyl-1(8-trifluoromethyl-quinolin-5-yl)-piperidine-3-carboxylic acid (1-methyl-piperidin-4-ylmethyl)-amide], below 1000 nM.
For `CC(C(=O)N[C@@H]1C[C@H](C)CN(c2ccc(C(F)(F)F)c3nccnc23)C1)N1CCC(O)CC1` (single isomer, unassigned) [Compound 372] the value was below 1000 nM; for `CCN(CC)CC(=O)N(C)CC1CCN(c2ccnc3nccnc23)CC1` [Compound 405, 2-Diethylamino-N-methyl-N-(1-pyrido[2,3-b]pyrazin-8-yl-piperidin-4-ylmethyl)-acetamide], 1000 to 10000 nM.
As for `C[C@H]1C[C@@H](N)CN(c2ccnc3ccccc23)C1` [Compound 11, (3R,5S)-5-methyl-1-(quinolin-4-yl)piperidin-3-amine], the IC50 is 1000 to 10000 nM.
Regarding `C[C@H]1C[C@@H](NC(=O)[C@H](N)c2ccccc2)CN(c2ccc(C#N)c3nccnc23)C1` [Compound 119, (2R)-2-amino-N-[(3R,5S)-1-(8-cyanoquinoxalin-5-yl)-5-methylpiperidin-3-yl]-2-phenylacetamide], the IC50 was below 1000 nM.
On to `C[C@H]1C[C@@H](NC(=O)CO)CN(c2ccc(C#N)c3nccnc23)C1` [Compound 97, N-[(3R,5S)-1-(8-cyanoquinoxalin-5-yl)-5-methylpiperidin-3-yl]-2-hydroxyacetamide], for which the IC50 is below 1000 nM.
Take `CCN(C)CC(=O)NCC1CCN(c2ccc(C#N)c3ncccc23)CC1` [Compound 410, N-[1-(8-Cyano-quinolin-5-yl)-piperidin-4-ylmethyl]-2-(ethyl-methyl-amino)-acetamide]: the IC50 is below 1000 nM.
For the compound `O=C(CN1CCCCC1)NCC1CCN(c2ccnc3nccnc23)CC1` [Compound 388, 2-Piperidin-1-yl-N-(1-pyrido[2,3-b]pyrazin-8-yl-piperidin-4-ylmethyl)-acetamide], the IC50 lay within 1000 to 10000 nM.
With `CC(C)[C@H](O)C(=O)NC1CC(C(F)(F)F)CN(c2ccc(C#N)c3nccnc23)C1` (single isomer, unassigned) [Compound 87], the IC50 is below 1000 nM.
